How the values were obtained:
FLO11 = assay: PFLO11-lacZ reporter, β-galactosidase activity; assay type: cell-based, S. cerevisiae; conditions: for FL011-lacZ (relative expression): Table 1, strain MY1405 with plasmid MB1339, control pTCN23 = 1.0; for FLO11-lacZ (relative expression): Table 2, strain MY1405 with MB1339, control pTCN23 = 1.0
Description: Transformation of S. cerevisiae was by lithium acetate/single-stranded carrier DNA/polyethylene glycol (LiAc/ss-DNA/PEG) protocol (see, e.g., Gietz and Woods (1998), in: Methods in Microbiology, Chapter 26, Brown and Tuite, eds., Academic Press, New York; Agatep et al. (1998), TTO 1:P01525, Technical Tips Online at http://tto.trends.com) with a library of plasmids expressing unique random peptide sequences in the context of a Staphylococcal nuclease “scaffold” to generate more than 20 million independent Ura^+ transformants (Norman et al. (1999), Science 285:591-595). The transformants were replica-plated to YPD plates supplemented with […] G418 to select for clones with increased expression of the invasion-related reporter (FLO11) and consequent G418 resistance. Plates were incubated at 30° C. for 2-4 days and resistant clones were collected in pools (50 pools total) by scraping the colonies off each plate in a small volume of water. Plasmids were isolated as a pool (Hoffman and Winston (1986), Gene 57:267), transformed into E. coli, and re-transformed as a pool into the original selection strain, MY1560. Ura^+ transformants were again replica plated to YPD+100 μg/ml G418 plates. […] Positive clones were further tested for plasmid dependence by (1) examining the correlation between spontaneous loss of the peptide-expressing plasmid and loss of G418 resistance, and (2) recovering the plasmid from the yeast, retransforming into the original selection strain, and characterizing the G418 resistance. […] The remaining candidate peptides were characterized for their effects on expression of PFLO11-lacZ reporter constructs. This was performed by co-transforming the candidate plasmid into S. cerevisiae strain MY1405 (MATα ura3Δ0 his3Δ0::hisG trp1Δ0::hisG) which contains plasmid MB1339 [PFLO11-lacZ TRP1 […]] and measuring β-galactosidase activity.

[1] = tested on: FLO11 promoter (PFLO11) fused to the neo gene; assay: PFLO11-neo reporter selection: G418 resistance on YPD; assay type: cell-based, S. cerevisiae; conditions: strain MY1560, YPD + 100 μg/ml G418
Description: To identify peptides that promote invasion we used S. cerevisiae strain MY1560 (MATα/MATαΔ::LEU2 ura3Δ::PFLO11-neo/ura3Δ0 leu2Δ0/leu2Δ0 trp1Δ0::hisG/trp1Δ10::hisG his3Δ0::hisG/his3Δ0::hisG). This strain contains the FLO11 promoter (PFLO11) fused to the neo gene conferring resistance to the drug G418. FLO11 is a cell-surface flocculin required for pseudohyphal and invasive growth in S. cerevisiae. […] Thus, altered FLO11 expression can be used as an indicator of an altered invasion phenotype.
It was empirically determined that the wild type MY1560 strain (untransformed or transformed with a plasmid representing the peptide library staph nuclease scaffold) is unable to grow on YPD media supplemented with 100 μg/ml G418. In contrast, hyperinvasive strains are resistant to this concentration of the drug and form colonies on G418-supplemented YPD media. Thus, transformation of this strain with an invasion-promoting peptide should render the cells capable of growing on G418-supplemented YPD media. […]

SMP1 = conditions: Table 2, strain MY1405 with MB1338, control pTCN23 = 1.0
Description: S. cerevisiae strain MY1561 (MATα/MATαΔ::LEU2 ura3Δ::PSMP1-neo/ura3Δ0 leu2Δ0/leu2Δ0 trp1Δ0::hisG/trp1Δ0::hisG/his3Δ0::hisG/his3Δ0::hisG) was transformed with the peptide library as described above to generate 10 million independent Ura^+ clones. The transformed clones were mated to lawns of S. cerevisiae strain MY1406 [MB1337] and subsequently replica-plated to SC-Ura-Trp plates to select for triploids carrying the library clones in addition to the PSMP1-neo reporter. […] The MY1561/MY1406 [MB1337] triploids were replica-plated to YPD plates containing 100, 150, and 200 μg/ml G418, and resistant colonies were picked and retested, and their phenotypes were checked for library plasmid dependence using 5-FOA. Promising candidates were lysed and their plasmids recovered in E. coli, amplified, and reintroduced into MY1561 along with MB 1337(MY1561 is an S. cerevisiae strain and MB 1337 is a plasmid). […] In addition, S. cerevisiae strain MY1405 was transformed with the peptide clones along with MB1338 [PSMP1-lacZ TRP1 2 micron] and MB1339 [PFLO11-lacZ TRP1 2 micron], and the enzyme assays were monitored. […] Peptide inhibitors of invasion were further characterized for their effects on calcofluor resistance, a phenotype associated with mutations in the rim101/pH response pathway.

[2] = tested on: hyphal transition in C. albicans; assay: serum induction assay of hyphal transition; assay type: cell-based; conditions: C. albicans transformants, serum inducing media, 37° C., relative to parent staph nuclease scaffold
PHWP1-lacZ reporter = PHWP1-lacZ reporter visual screen on X-Gal plates; assay type: cell-based, C. albicans

Substance | FL011-lacZ (relative expression) (FLO11) | also measured
AFSRRGRRAWSWPVSN [5-48, 2, invasion-promoting random peptide expressed in loop of Staphylococcal nuclease scaffold] | 12.9 | 
ALARWLEIELHPQGLI [5-16, 3, invasion-promoting random peptide expressed in loop of Staphylococcal nuclease scaffold] | 13.3 | 
CGLGGCCCEIFWSFSN [5-30, 3, invasion-promoting random peptide expressed in loop of Staphylococcal nuclease scaffold] | 7.3 | 
ELAYKFGRDWARLYFS [Clone 5-75-1, invasion-promoting random peptide expressed in loop of Staphylococcal nuclease scaffold] | 15.0 | 
EWCEICHRLVWVFCFT [5-34, 3, invasion-promoting random peptide expressed in loop of Staphylococcal nuclease scaffold] | 4.1 | 
GAGCAPRGCVVWSSLL [4-3, 1, invasion-promoting random peptide expressed in loop of Staphylococcal nuclease scaffold] | 2.5 | 
GHLWEWSGERWLLRWC [5-23, 1a, invasion-promoting random peptide expressed in loop of Staphylococcal nuclease scaffold] | 12.2 | 
GRRSRVRWSWPLFKSL [5-28, 3, invasion-promoting random peptide expressed in loop of Staphylococcal nuclease scaffold] | 18.2 | 
GSNGCVSVSSSVTSFM [5-49, 3, invasion-promoting random peptide expressed in loop of Staphylococcal nuclease scaffold] | 2.5 | PFLO11-neo Mediated G418^R [1]: +w
GYLRKHRALALGLNLH [4-9, 3, invasion-promoting random peptide expressed in loop of Staphylococcal nuclease scaffold] | 11.5 | 
HGDGLMRYFWSVAMWT [Clone 5-12-1a, invasion-promoting random peptide expressed in loop of Staphylococcal nuclease scaffold] | 2.7 | 
KRGRRRSHSCPSLMTD [4-1, 1, invasion-promoting random peptide expressed in loop of Staphylococcal nuclease scaffold] | 2.2 | 
KRKVCLLGGRFLVEWL [4-16, 2, invasion-promoting random peptide expressed in loop of Staphylococcal nuclease scaffold] | 14.8 | 
LAYGPERYPRACMRWD [Clone B2a] |  | SMP1-lacZ (relative expression) (SMP1): 8.9; FLO11-lacZ (relative expression) (FLO11): 0.2
LDLDRVSVNRCSFMGF [Clone 5-20-1a, invasion-promoting random peptide expressed in loop of Staphylococcal nuclease scaffold] | 2.8 | 
LGYGEAEREMVTCREH [Clone D4a] |  | SMP1-lacZ (relative expression) (SMP1): 9.1; FLO11-lacZ (relative expression) (FLO11): 0.1
LGYMRASREMDGWKLL [Clone D2a] |  | SMP1-lacZ (relative expression) (SMP1): 15.4; FLO11-lacZ (relative expression) (FLO11): 0.3

Substance | FL011-lacZ (relative expression) (FLO11) | also measured
LPVSYVGQSTSQGPVW [Clone G4a-6] |  | SMP1-lacZ (relative expression) (SMP1): 7.8; FLO11-lacZ (relative expression) (FLO11): 0.4
LPYEVSRVCWPRRLGY [Clone D2e] |  | SMP1-lacZ (relative expression) (SMP1): 14.3; FLO11-lacZ (relative expression) (FLO11): 0.1
LSYMEGPYWHRSFRAV [Clone G2a] |  | SMP1-lacZ (relative expression) (SMP1): 7.5; FLO11-lacZ (relative expression) (FLO11): 0.5
LTGYAKLLVQLSYFAM [Clone B2c-2] |  | SMP1-lacZ (relative expression) (SMP1): 6.4; FLO11-lacZ (relative expression) (FLO11): 0.7
LYRAFTWPVAKSLRME [5-37, 1, invasion-promoting random peptide expressed in loop of Staphylococcal nuclease scaffold] | 6.1 | 
MGCVKRLLWGCCMKLT [Clone 5-64-1, invasion-promoting random peptide expressed in loop of Staphylococcal nuclease scaffold] | 2.0 | 
PYGPFLLLTPF*A*L [5-32, 1, invasion-promoting random peptide in Staphylococcal nuclease scaffold; * denotes a stop codon; C. albicans expression plasmid MB2756] | 15.1 | morphological switch between yeast and filamentous growth (hyphal transition) [2]: effective in inducing the morphological switch between yeast and filamentous growth; β-galactosidase expression (PHWP1-lacZ reporter) (PHWP1-lacZ reporter): higher level of β-galactosidase expression
QPWYRKLRLAPVYPSD [Clone 5-39-1a, invasion-promoting random peptide expressed in loop of Staphylococcal nuclease scaffold] | 17.8 | 
QRIPLIGGVLFIAWIM [Clone 5-11-3a, invasion-promoting random peptide expressed in loop of Staphylococcal nuclease scaffold] | 3.0 | 
RCPVAHTLCWEVAGCT [Clone 5-43-3b, invasion-promoting random peptide expressed in loop of Staphylococcal nuclease scaffold] | 9.6 | 
REINWLRFFRLHKVID [5-45, 2, invasion-promoting random peptide expressed in loop of Staphylococcal nuclease scaffold] | 6.2 | 
RRWEVLRGDRTARLLS [5-25, 2, invasion-promoting random peptide expressed in loop of Staphylococcal nuclease scaffold] | 13.7 | 
RRWNRLKSWWPCFREQ [Clone 5-18-3b, invasion-promoting random peptide expressed in loop of Staphylococcal nuclease scaffold] | 2.6 | 
SGDAVMGFLLKCLGLQ [5-31, 2, invasion-promoting random peptide expressed in loop of Staphylococcal nuclease scaffold] | 12.6 | 
WWRPHERFIWAQYYLA [5-14, 3, invasion-promoting random peptide expressed in loop of Staphylococcal nuclease scaffold] | 4.9 | 
YEAGVILRACLWAVSG [4-17, 1, invasion-promoting random peptide expressed in loop of Staphylococcal nuclease scaffold] | 10.5 | 

Reference: patent publication US20030134329A1, “Cross-species bioactive peptides” (priority 2001, published 2003)
